Patent US8546389B2 (priority 2010, dated 2013)

Experiments:
[1] = system: genotype 1b (Con 1) subgenomic replicon cell line; assay: HCV replicon assay, genotype 1b (Renilla luciferase); format: cell-based, HCV genotype 1b (Con 1); details: Hepatitis C virus; genotype 1b replicon, 72 hours, luciferase; read-out: genotype 1b EC50 (range class)
How it was run: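 Subgenomic replicon cells expressing Renilla luciferase (1b Con1; 1a and 2a lines by the same method) seeded at 7000 cells/well (5000 for 2a) without G418, exposed to 3-fold compound dilutions for 72 h at 37 °C. Luciferase activity measured; EC50 by non-linear regression.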

[2] = target: 1b (BK) NS5bΔ21 (Hepatitis C virus genotype 1b (isolate BK) (HCV), UniProt P26663); assay: HCV polymerase inhibition assay, genotype 1b; format: biochemical, HCV genotype 1b (BK); details: 1b (BK) NS5bΔ21, 33P-GTP incorporation; read-out: 1b polymerase IC50 (range class)
Chain of 1b (BK) NS5bΔ21 (P26663 2420-2989): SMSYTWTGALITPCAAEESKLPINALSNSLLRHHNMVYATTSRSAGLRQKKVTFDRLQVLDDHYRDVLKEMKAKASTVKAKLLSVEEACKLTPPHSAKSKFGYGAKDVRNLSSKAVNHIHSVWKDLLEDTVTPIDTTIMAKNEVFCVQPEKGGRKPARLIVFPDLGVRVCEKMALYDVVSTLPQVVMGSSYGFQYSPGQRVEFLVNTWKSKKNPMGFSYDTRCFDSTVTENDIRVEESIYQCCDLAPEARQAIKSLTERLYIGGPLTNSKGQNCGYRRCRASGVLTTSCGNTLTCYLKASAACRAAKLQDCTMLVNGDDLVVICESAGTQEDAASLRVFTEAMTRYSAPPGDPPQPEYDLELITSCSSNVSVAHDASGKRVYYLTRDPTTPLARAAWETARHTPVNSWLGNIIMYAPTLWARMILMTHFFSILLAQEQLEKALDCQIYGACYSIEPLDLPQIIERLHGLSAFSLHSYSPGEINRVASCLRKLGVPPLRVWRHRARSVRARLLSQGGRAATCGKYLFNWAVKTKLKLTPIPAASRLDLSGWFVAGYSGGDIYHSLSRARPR
How it was run: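 Both genotype 1b and 3a enzymes assayed identically: ^33P-GTP incorporation on poly(rC) template, GTP at Km, 50 nM NS5bΔ21, pH 7.5 Tris with 5 mM MgCl2 and MnCl2, 1 h reaction ended by cold EDTA. Filter-bound label counted; IC50 fitted by non-linear regression across three-fold dilution series.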

Structure (SMILES) | EC50 [1] [nM] | IC50 [2] [nM]
CNC(=O)c1c2cc(C3CC3)c(N3CCN(C)S3(=O)=O)cc2nn1-c1ccc(Br)cc1 [Compound 104, 2-(4-bromophenyl)-5-cyclopropyl-N-methyl-6-(5-methyl-1,1-dioxido-1,2,5-thiadiazolidin-2-yl)-2H-indazole-3-carboxamide] | 1000 to 9990 | 10000 to 50000
CNC(=O)c1c2cc(C3CC3)c(N3CCCC3=O)cc2nn1-c1ccc(NCC(C)C)cc1 [Compound 105, 5-cyclopropyl-N-methyl-2-{4-[(2-methylpropyl)amino]phenyl}-6-(2-oxopyrrolidin-1-yl)-2H-indazole-3-carboxamide] | 1000 to 9990 | 10000 to 50000
CNC(=O)c1c2cc(C3CC3)c(N(CC(C)O)S(C)(=O)=O)cc2nn1-c1ccc(Br)cc1 (centres unmarked) [Compound 106, 2-(4-Bromophenyl)-5-cyclopropyl-6-[2-hydroxypropyl(methylsulfonyl)amino]-N-methyl-2H-indazole-3-carboxamide] | 1000 to 9990 | 1000 to 9990
CNC(=O)c1c2cc(C3CC3)c(N(C3CCNCC3)S(C)(=O)=O)cc2nn1-c1ccc(Br)cc1 [Compound 107, 2-(4-bromophenyl)-5-cyclopropyl-N-methyl-6-[methylsulfonyl(piperidin-4-yl)-amino]-2H-indazole-3-carboxamide] | 1000 to 9990 | 1000 to 9990
CNC(=O)c1c2cc(C3CC3)c(N(C3CCN(S(C)(=O)=O)CC3)S(C)(=O)=O)cc2nn1-c1ccc(Br)cc1 [Compound 108, 2-(4-bromophenyl)-5-cyclopropyl-N-methyl-6-[methylsulfonyl-(1-methylsulfonyl(piperidin-4-yl))amino]-2H-indazole-3-carboxamide] | 1000 to 9990 | < 990
CCN(c1cc2nn(-c3ccc(NCC(C)C)nc3)c(C(=O)NC)c2cc1C1CC1)S(C)(=O)=O [Compound 110, 5-cyclopropyl-6-[ethyl(methylsulfonyl)amino]-2-[6-(isobutylamino)-3-pyridyl]-N-methyl-2H-indazole-3-carboxamide] | < 990 | < 990
CCCN(c1cc2nn(-c3ccc(Oc4ccc(F)cc4)cc3)c(C(=O)NC)c2cc1C1CC1)S(C)(=O)=O [Compound 113] | < 990 | < 990
CNC(=O)c1c2cc(C3CC3)c(N(CCN3CCCCC3)S(C)(=O)=O)cc2nn1-c1ccc(Oc2ccc(F)cc2)cc1 [Compound 114] | 1000 to 9990 | 1000 to 9990
CNC(=O)c1c2cc(C3CC3)c(N(CCCOC(=O)c3ccccc3C(=O)O)S(C)(=O)=O)cc2nn1-c1ccc(Oc2ccc(F)cc2)cc1 [Compound 115] | 1000 to 9990 | < 990
CNC(=O)c1c2cc(C3CC3)c(N(CCCOC(C)=O)S(C)(=O)=O)cc2nn1-c1ccc(Nc2ccc(F)cc2)cc1 [Compound 116] | < 990 | < 990
CNC(=O)c1c2cc(C3CC3)c(N(CCCOC(=O)c3cnccn3)S(C)(=O)=O)cc2nn1-c1ccc(Oc2ccc(F)cc2)cc1 [Compound 118] | < 990 | < 990
CNC(=O)c1c2cc(C3CC3)c(N(CCCO)S(C)(=O)=O)cc2nn1-c1ccc(NCC(C)C)cc1 [Compound 122] | < 990 | 1000 to 9990
CCN(c1cc2nn(-c3ccc(Nc4ccccc4F)cc3)c(C(=O)NC)c2cc1OC)S(C)(=O)=O [Compound 123] | < 990 | 1000 to 9990
CCN(c1cc2nn(-c3ccc(NCC(C)C)cc3)c(C(=O)NC)c2cc1OC)S(C)(=O)=O [Compound 124] | 1000 to 9990 | 1000 to 9990
CCN(c1cc2nn(-c3ccccc3)c(C(=O)NC)c2cc1OC)S(C)(=O)=O [Compound 125] | 1000 to 9990 | 10000 to 50000
CNC(=O)c1c2cc(OC)c(N(CCCO)S(C)(=O)=O)cc2nn1-c1ccc(Nc2ccccc2F)cc1 [Compound 126] | 1000 to 9990 | 1000 to 9990
CNC(=O)c1c2cc(C3CC3)c(N3CCCCC3=O)cc2nn1-c1ccc(Nc2ccc(F)cc2)cc1 [Compound 127] | 1000 to 9990 | 10000 to 50000
CNC(=O)c1c2cc(C3CC3)c(N3CCCS3(=O)=O)cc2nn1-c1ccc(Br)cc1 [Compound 128] | 1000 to 9990 | 1000 to 9990
C=C(C)c1cc2c(C(=O)NC)n(-c3ccc(F)cc3)nc2cc1N(CC)S(C)(=O)=O [Compound 129] | 1000 to 9990 | 10000 to 50000
CCN(c1cc2nn(-c3ccc(F)cc3)c(C(=O)NC)c2cc1Br)S(C)(=O)=O [Compound 132] | 10000 to 50000 | 1000 to 9990
CNC(=O)c1c2cc(C3CC3)c(N(CCCNC(=O)CN)S(C)(=O)=O)cc2nn1-c1ccc(Br)cc1 [Compound 133] | 1000 to 9990 | < 990
CNC(=O)c1c2cc(C3CC3)c(N(CCCN(C)S(C)(=O)=O)S(C)(=O)=O)cc2nn1-c1ccc(Br)cc1 [Compound 135] | < 990 | < 990
CCN(c1cc2nn(-c3ccc(F)cc3)c(C(=O)NC)c2cc1C1CC1)S(C)(=O)=O [Compound 138] | < 990 | < 990
CCN(c1cc2nn(-c3ccc(F)cc3)c(C(=O)NC)c2cc1C)S(C)(=O)=O [Compound 139] | 10000 to 50000 | 1000 to 9990
CNC(=O)c1c2cc(C3CC3)c(N(Cc3ccncc3)S(C)(=O)=O)cc2nn1-c1ccc(Br)cc1 [Compound 140] | < 990 | < 990

Structure (SMILES) | EC50 [1] [nM] | IC50 [2] [nM]
CCOC(=O)CN(c1cc2nn(-c3ccc(Br)cc3)c(C(=O)NC)c2cc1C1CC1)S(C)(=O)=O [Compound 141] | 10000 to 50000 | 1000 to 9990
CCN(c1cc2nn(-c3ccc(F)cc3)c(C(=O)NC)c2cc1C1=CCOCC1)S(C)(=O)=O [Compound 142] | 1000 to 9990 | 10000 to 50000
CNC(=O)CCCN(c1cc2nn(-c3ccc(Br)cc3)c(C(=O)NC)c2cc1C1CC1)S(C)(=O)=O [Compound 143] | 1000 to 9990 | < 990
CC=Cc1cc2c(C(=O)NC)n(-c3ccc(F)cc3)nc2cc1N(CC)S(C)(=O)=O [Compound 144] | 1000 to 9990 | 1000 to 9990
CCCc1cc2c(C(=O)NC)n(-c3ccc(F)cc3)nc2cc1N(CC)S(C)(=O)=O [Compound 145] | 1000 to 9990 | 1000 to 9990
CNC(=O)c1c2cc(C3CC3)c(N(CCCNC(=O)c3ccccc3C(=O)O)S(C)(=O)=O)cc2nn1-c1ccc(NCC(C)C)cc1 [Compound 146] | 1000 to 9990 | < 990
CNC(=O)c1c2cc(C3CC3)c(N(CCCNC(=O)c3ccccc3C(=O)O)S(C)(=O)=O)cc2nn1-c1ccc(Br)cc1 [Compound 147] | 1000 to 9990 | < 990
CNC(=O)CCN(c1cc2nn(-c3ccc(Br)cc3)c(C(=O)NC)c2cc1C1CC1)S(C)(=O)=O [Compound 148] | 1000 to 9990 | < 990
CCN(c1cc2nn(-c3ccc(F)cc3)c(C(=O)NC)c2cc1C#CC(C)(C)O)S(C)(=O)=O [Compound 149] | 10000 to 50000 | < 990
CNC(=O)c1c2cc(C3CC3)c(N(CCC(=O)NS(=O)(=O)c3ccccc3)S(C)(=O)=O)cc2nn1-c1ccc(Br)cc1 [Compound 150] | 10000 to 50000 | < 990
CNC(=O)c1ccccc1C(=O)NCCCN(c1cc2nn(-c3ccc(Br)cc3)c(C(=O)NC)c2cc1C1CC1)S(C)(=O)=O [Compound 151] | 1000 to 9990 | < 990
CNC(=O)CCC(=O)NCCCN(c1cc2nn(-c3ccc(Br)cc3)c(C(=O)NC)c2cc1C1CC1)S(C)(=O)=O [Compound 152] | 10000 to 50000 | < 990
CNC(=O)c1c2cc(C3CC3)c(N(CCC(=O)NS(=O)(=O)c3cccs3)S(C)(=O)=O)cc2nn1-c1ccc(Br)cc1 [Compound 153] | 10000 to 50000 | < 990
CNC(=O)c1c2cc(C3CC3)c(N(CCC(=O)NS(=O)(=O)c3ccc(F)cc3)S(C)(=O)=O)cc2nn1-c1ccc(Br)cc1 [Compound 154] | 10000 to 50000 | < 990
CNC(=O)c1c2cc(C3CC3)c(N(CCC(=O)N(C)C)S(C)(=O)=O)cc2nn1-c1ccc(Br)cc1 [Compound 155] | 1000 to 9990 | < 990
CNC(=O)c1c2cc(C3CC3)c(-c3nccn3C)cc2nn1-c1ccc(F)cc1 [Compound 157] | 10000 to 50000 | 1000 to 9990
CNC(=O)c1c2cc(C3CC3)c(N(CCCNC(=O)CCOC)S(C)(=O)=O)cc2nn1-c1ccc(Br)cc1 [Compound 161] | < 990 | < 990
CCNC(=O)CCN(c1cc2nn(-c3ccc(Br)cc3)c(C(=O)NC)c2cc1C1CC1)S(C)(=O)=O [Compound 162] | 1000 to 9990 | 1000 to 9990
CCN(c1cc2nn(-c3ccc(F)cc3)c(C(=O)NC)c2cc1-c1csc(C)n1)S(C)(=O)=O [Compound 163] | 1000 to 9990 | 10000 to 50000
CCCNC(=O)CCN(c1cc2nn(-c3ccc(Br)cc3)c(C(=O)NC)c2cc1C1CC1)S(C)(=O)=O [Compound 165] | 1000 to 9990 | 1000 to 9990
CNC(=O)c1c2cc(C3CC3)c(N(CCCNC(=O)c3cn(C)cn3)S(C)(=O)=O)cc2nn1-c1ccc(Br)cc1 [Compound 167] | < 990 | < 990
CNC(=O)c1c2cc(C3CC3)c(N(CCCNC(=O)c3cnoc3)S(C)(=O)=O)cc2nn1-c1ccc(Br)cc1 [Compound 168] | < 990 | < 990
CNC(=O)c1c2cc(C3CC3)c(N(CCCN3C(=O)c4ccccc4C3=O)S(C)(=O)=O)cc2nn1-c1ccc(Br)cc1 [Compound 169] | < 990 | < 990
CCN(c1cc2nn(-c3ccc(F)cc3)c(C(=O)NC)c2cc1OCC#N)S(C)(=O)=O [Compound 170] | < 990 | < 990
